This passage reports IC50 results from BindingDB's records for patent WO2022081842 (THE BROAD INSTITUTE, INC., 2022).

T1 sequence (Q92794 whole entry): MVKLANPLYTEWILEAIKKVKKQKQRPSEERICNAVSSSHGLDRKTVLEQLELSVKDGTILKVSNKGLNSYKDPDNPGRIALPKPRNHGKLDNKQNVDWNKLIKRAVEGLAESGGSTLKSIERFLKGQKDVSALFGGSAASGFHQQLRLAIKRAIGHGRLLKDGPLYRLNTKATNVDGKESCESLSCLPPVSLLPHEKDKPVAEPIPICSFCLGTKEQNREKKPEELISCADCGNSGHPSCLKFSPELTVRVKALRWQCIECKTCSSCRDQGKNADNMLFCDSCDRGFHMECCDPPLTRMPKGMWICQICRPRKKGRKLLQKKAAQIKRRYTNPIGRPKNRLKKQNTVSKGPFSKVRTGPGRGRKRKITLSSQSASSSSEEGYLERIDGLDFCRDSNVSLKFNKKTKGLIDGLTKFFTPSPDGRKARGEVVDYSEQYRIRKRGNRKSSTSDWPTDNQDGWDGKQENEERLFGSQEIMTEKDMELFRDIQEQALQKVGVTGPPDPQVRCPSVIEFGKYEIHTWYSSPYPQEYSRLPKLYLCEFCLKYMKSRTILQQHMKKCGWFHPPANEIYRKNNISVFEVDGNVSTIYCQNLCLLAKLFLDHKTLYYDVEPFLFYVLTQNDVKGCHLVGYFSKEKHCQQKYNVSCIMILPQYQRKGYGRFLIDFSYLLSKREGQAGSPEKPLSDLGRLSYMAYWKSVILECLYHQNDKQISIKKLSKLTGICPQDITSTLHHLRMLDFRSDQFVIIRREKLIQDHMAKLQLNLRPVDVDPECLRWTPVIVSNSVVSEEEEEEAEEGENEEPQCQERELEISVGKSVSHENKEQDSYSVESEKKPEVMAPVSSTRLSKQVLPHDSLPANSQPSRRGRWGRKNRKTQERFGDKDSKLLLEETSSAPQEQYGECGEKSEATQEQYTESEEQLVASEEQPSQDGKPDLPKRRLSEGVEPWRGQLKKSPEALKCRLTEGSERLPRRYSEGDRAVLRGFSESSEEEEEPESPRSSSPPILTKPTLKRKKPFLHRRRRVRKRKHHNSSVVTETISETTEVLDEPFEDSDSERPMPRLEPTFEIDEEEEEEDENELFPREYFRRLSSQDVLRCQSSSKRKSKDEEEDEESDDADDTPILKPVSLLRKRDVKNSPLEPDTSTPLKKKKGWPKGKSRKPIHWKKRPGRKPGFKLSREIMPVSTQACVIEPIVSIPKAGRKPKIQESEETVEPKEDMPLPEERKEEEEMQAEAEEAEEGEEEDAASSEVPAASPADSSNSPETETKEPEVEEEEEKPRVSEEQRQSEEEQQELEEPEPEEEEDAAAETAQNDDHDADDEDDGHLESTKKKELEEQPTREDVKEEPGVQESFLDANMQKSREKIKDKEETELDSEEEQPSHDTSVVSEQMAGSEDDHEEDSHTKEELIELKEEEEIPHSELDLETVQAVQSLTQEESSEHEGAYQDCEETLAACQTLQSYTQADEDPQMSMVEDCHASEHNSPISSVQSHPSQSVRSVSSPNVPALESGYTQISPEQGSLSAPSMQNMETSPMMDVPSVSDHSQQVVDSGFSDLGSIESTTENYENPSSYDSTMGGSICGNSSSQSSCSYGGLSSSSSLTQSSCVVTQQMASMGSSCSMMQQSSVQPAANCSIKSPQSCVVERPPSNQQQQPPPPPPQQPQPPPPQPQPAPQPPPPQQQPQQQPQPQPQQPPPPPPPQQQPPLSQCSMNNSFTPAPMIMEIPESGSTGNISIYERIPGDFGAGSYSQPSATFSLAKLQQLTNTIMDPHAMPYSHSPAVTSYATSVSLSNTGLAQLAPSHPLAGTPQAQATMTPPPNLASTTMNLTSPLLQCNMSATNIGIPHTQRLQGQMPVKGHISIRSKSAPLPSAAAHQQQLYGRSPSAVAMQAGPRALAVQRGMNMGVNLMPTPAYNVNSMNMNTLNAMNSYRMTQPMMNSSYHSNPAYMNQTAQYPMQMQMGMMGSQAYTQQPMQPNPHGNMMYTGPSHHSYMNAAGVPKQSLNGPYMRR
Sequence of Histone acetyltransferase KAT6B (Q8WYB5 whole entry, the tested form may be a part): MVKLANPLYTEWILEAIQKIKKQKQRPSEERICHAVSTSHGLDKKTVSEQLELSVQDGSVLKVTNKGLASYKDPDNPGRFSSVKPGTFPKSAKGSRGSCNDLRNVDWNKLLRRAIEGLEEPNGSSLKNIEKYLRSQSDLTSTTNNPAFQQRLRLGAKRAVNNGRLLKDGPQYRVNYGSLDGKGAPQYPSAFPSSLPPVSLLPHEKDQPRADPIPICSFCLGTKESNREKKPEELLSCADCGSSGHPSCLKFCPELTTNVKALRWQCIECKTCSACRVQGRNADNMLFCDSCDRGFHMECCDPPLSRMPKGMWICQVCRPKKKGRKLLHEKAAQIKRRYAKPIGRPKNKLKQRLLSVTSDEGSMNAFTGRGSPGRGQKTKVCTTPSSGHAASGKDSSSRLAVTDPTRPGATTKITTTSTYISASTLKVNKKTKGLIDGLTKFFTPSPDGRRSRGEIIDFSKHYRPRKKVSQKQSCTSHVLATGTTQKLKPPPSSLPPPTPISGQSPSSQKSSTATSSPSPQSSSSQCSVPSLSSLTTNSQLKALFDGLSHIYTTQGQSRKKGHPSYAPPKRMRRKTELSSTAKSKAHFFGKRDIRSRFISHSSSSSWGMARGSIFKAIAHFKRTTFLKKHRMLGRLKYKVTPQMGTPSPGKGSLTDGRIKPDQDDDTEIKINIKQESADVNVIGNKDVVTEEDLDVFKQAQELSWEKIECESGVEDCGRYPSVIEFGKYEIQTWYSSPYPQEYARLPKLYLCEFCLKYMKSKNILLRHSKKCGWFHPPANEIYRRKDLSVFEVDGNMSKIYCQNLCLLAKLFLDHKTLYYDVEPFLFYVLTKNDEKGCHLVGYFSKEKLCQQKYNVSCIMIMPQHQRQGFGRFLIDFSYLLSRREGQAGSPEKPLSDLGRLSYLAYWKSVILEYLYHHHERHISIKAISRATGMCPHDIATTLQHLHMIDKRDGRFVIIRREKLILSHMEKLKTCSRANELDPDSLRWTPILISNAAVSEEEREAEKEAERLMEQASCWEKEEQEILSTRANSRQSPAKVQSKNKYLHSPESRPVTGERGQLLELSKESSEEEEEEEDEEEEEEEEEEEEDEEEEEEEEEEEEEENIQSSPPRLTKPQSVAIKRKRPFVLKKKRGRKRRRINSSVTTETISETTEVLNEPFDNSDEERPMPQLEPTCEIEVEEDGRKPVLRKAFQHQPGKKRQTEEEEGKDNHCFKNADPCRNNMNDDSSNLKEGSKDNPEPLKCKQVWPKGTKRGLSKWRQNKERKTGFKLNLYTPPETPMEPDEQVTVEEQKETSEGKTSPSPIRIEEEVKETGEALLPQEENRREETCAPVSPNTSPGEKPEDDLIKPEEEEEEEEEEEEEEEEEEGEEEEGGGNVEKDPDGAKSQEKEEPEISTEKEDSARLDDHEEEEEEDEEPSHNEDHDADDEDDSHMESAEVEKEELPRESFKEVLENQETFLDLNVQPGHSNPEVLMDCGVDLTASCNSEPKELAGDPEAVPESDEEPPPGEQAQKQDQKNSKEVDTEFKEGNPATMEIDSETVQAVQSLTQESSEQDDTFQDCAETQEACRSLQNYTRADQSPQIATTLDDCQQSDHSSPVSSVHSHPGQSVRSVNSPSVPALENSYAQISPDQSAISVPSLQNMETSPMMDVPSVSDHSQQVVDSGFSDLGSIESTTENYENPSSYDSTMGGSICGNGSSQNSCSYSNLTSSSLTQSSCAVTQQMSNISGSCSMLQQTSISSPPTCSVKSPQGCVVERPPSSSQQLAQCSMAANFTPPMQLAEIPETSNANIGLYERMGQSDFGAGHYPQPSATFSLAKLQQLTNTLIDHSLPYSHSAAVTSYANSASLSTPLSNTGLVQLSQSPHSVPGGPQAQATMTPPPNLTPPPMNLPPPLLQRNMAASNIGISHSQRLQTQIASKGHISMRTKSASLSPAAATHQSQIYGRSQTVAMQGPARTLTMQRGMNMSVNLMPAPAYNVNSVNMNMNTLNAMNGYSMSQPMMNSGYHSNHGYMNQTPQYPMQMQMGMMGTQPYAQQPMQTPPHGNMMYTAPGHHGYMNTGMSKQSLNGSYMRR

The first experiment addresses Histone acetyltransferase KAT6B (Human, UniProt Q8WYB5). In words: Kat6b Activity Assay. An excerpt: Kat6b inhibitory activities of the compounds described in the present invention were quantified using a Fluorescence Resonance Energy Transfer (TR-FRET) assay which measures acetylation of a synthetic, biotinylated Histone-H4-derived peptide by the enzyme.Recombinant human GST-tagged Kat6b protein (431-end, N-terminal GST-tag), purified from Baculovirus- infected insect cells (Sf9), was purchased from SignalChem (#K315-381BG). Histone H4 peptide (amino acids 1-24, […]-VLRD-K(Btn)-amide), which was used as substrate, was synthesized by Biosyntan GmbH, Berlin, Germany. Acetyl Coenzyme A was purchased from Sigma-Aldrich (#A-2056). Kat6b was incubated for 30 mins at 22°C in the presence of different concentrations of test substances (0 μM, and within the range 0.01 - 20 μM) in assay buffer [25 mM Tris/HCl pH 8, 1 mM EGTA, 2.5 mM Glutathion, 0.02% Chicken Albumin, 0.05% Pluronic F127, 25 mM NaCl, 500 nM H4 peptide and 600 nM Acetyl Coenzyme A].The reaction was stopped by addition of Detection Solution (25mM HEPES pH 7.5, 0.1% BSA, 22nM SAXL665 (Cisbio #610SAXLE), 100μM Anacardic Acid (Enzo #ALX-270-381), 1nM Anti-Histone H4 (ACETYL K8) Antibody (ABCAM #AB15823), 0.5 nM Anti-Rabbit IgG Eu (Perkin Elmer #AD0083).The fluorescence emission at 620 nm and 665 nm after excitation at 330-350 nm was measured in a TR-FRET measuring instrument, for instance a Rubystar or a Pherastar (both from BMG Lab Technologies, Offenburg, Germany) or a Viewlux (Perkin-Elmer). The ratio of the emission at 665 nm and at 622 nm was used as indicator of the amount of acetylated peptide.The resulting data (ratio) were normalized, taking 0% inhibition as the mean value of control measurements where all reagents were included. In this case 50 nl DMSO were used instead of compounds. A 100% inhibition corresponded to the mean value of control measurements where all reagents except enzyme were included. IC50 values were determined by regression analysis based on a 4 parameter equation (minimum, maximum, ICM, Hill; Y = Max + (Min - Max) / (1 + (X/ICso) Hill) using the Screener Software (Genedata).
Regarding `O=C(NS(=O)(=O)c1ccccc1-c1ccccc1)c1cc2ccc(-c3cccnc3)cc2o1` [WO2022081842, Example 4], the IC50 is greater than 20000 nM.

Take `O=C(O)c1ccc2cc(C(=O)NS(=O)(=O)c3ccccc3-c3ccccc3)oc2c1` [WO2022081842, Example 5]: the IC50 was greater than 20000 nM.

Compound `CN(C)C(=O)c1ccc2cc(C(=O)NS(=O)(=O)c3ccccc3-c3ccccc3)oc2c1` [WO2022081842, Example 8] registered an IC50 greater than 20000 nM.

`Cc1ccc2cccc(S(=O)(=O)NC(=O)c3cc4c(F)cc(C5CC5)cc4o3)c2n1` [WO2022081842, Example 22] came in with an IC50 of 23 nM.

As to `C=C(C)c1ccc2cc(C(=O)NS(=O)(=O)c3ccccc3-c3ccccc3)oc2c1` [WO2022081842, Example 23], the IC50 was 155 nM.

Compound `CCOc1ccccc1S(=O)(=O)NC(=O)c1cc2c(F)cc(C3CC3)cc2o1` [WO2022081842, Example 25] displayed an IC50 of 28 nM.

Compound `CC(C)c1ccc2cc(C(=O)NS(=O)(=O)c3ccc(Cl)cc3Cl)oc2c1` [WO2022081842, Example 57] showed an IC50 of 5250 nM.

The compound `CC(C)(C)c1ccc(OCc2ccccc2)c(S(=O)(=O)NC(=O)c2cc3c(F)cc(C4CC4)cc3o2)c1` [WO2022081842, Example 60] came in with an IC50 of 45 nM.

The next experiment concerns the target T1, Histone acetyltransferase KAT6A [507-778] (Human, UniProt Q92794).
T1 construct: 507-778
In words: Kat6a Activity Assay. An excerpt:
Kat6a inhibitory activities of the compounds described in the present invention were quantified using a Fluorescence Resonance Energy Transfer (TR-FRET) assay which measures acetylation of a synthetic, biotinylated Histone-H4-derived peptide by the enzyme.Recombinant human His-tagged Kat6a protein (amino acids 194-810), was purified in-house from Baculovirus- infected insect cells (Sf9). Histone H4 peptide (amino acids 1-24, […]-VLRD-K(Btn)-amide), which was used as substrate, was synthesized by Biosyntan GmbH, Berlin, Germany. Acetyl Coenzyme A was purchased from Sigma-Aldrich (#A-2056).Kat6a was incubated for 60 mins at 22°C in the presence of different concentrations of test substances (0 μM, and within the range 0.01 - 20 μM) in assay buffer [25 mM Tris/HCl pH 8, 1 mM EGTA, 2.5 mM Glutathion, 0.02% Chicken Albumin, 0.05% Pluronic F127, 25 mM NaCl, 220 nM H4 peptide and 600 nM Acetyl Coenzyme A].The reaction was stopped by addition of Detection Solution (25mM HEPES pH 7.5, 0.1% BSA, 22nM SAXL665 (Cisbio #610SAXLE), 100μM Anacardic Acid (Enzo #ALX-270-381), 1nM Anti-Histone H4 (ACETYL K8) Antibody (ABCAM #AB15823) and 0.5 nM Anti-Rabbit IgG Eu (Perkin Elmer #AD0083).
For the compound `C=C(C)c1ccc2cc(C(=O)NS(=O)(=O)c3ccccc3-c3ccccc3)oc2c1` [WO2022081842, Example 23], the IC50 was determined as 215 nM.

Consider `O=C(NS(=O)(=O)c1ccccc1-c1ccccc1)c1cc2c(F)cc(C3CC3)cc2o1` [WO2022081842, Example 38], for which the IC50 was found to be 17 nM.

Take `CCOc1ccccc1S(=O)(=O)NC(=O)c1cc2c(OC(F)F)cc(C3CC3)cc2o1` [WO2022081842, Example 49]: the IC50 came to 29 nM.

As to `CCOc1ccccc1S(=O)(=O)NC(=O)c1cc2c(C(F)(F)F)cc(C3CC3)cc2o1` [WO2022081842, Example 51], half-maximal inhibition (IC50) required 26 nM.

As to `CC(C)c1ccc2cc(C(=O)NS(=O)(=O)c3ccc(Cl)cc3Cl)oc2c1` [WO2022081842, Example 57], the IC50 is 611 nM.

Turning to `CCOc1ccccc1S(=O)(=O)NC(=O)c1cc2c(-n3ccnc3)cc(C3CC3)cc2o1` [WO2022081842, Example 58], the IC50 was 40 nM.

The term IC50 denotes the concentration that inhibits the measured activity by half. Higher therefore signals a need for much substance.
